Experimental data as given in ChEMBL document CHEMBL1201862, “PubChem BioAssay data set” (2004).
Structures can show the parent of a compound that is named as a salt.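 Tested at 5 concentrations; 48 h exposure; 96-well plates; endpoints linearly interpolated, else capped at highest concentration. Abbreviation: GI50, concentration required for 50% inhibition of growth.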 Calls of active or inactive are those of the source. No stated cut-off is given here; in the data, active = GI50 up to about 1.1 µM and inactive = higher.

Tests used:
Test in all cases: inhibition of tumour cell growth, NCI panel, 48 h
[1] = test system: UO-31
[2] = test system: RXF 393
[3] = test system: SF-295
[4] = test system: DU-145
[5] = test system: SNB-19
[6] = test system: HL-60
[7] = test system: KM12
[8] = test system: LXFL 529
[9] = test system: K562
[10] = test system: PC-3
[11] = test system: SNB-75
[12] = test system: NCI-H23
[13] = test system: SN12C
[14] = test system: LOX IMVI
[15] = test system: OVCAR-3
[16] = test system: SK-MEL-5
[17] = test system: HOP-62
[18] = test system: COLO 205
[19] = test system: EKVX
[20] = test system: 786-0

NCCSSCCN [CYSTAMINE HYDROCHLORIDE]
GI50 [1]: > 100 µM (inactive)
GI50 [2]: > 100 µM (inactive)
GI50 [3]: > 100 µM (inactive)
GI50 [4]: > 100 µM (inactive)
GI50 [5]: > 100 µM (inactive)
GI50 [6]: > 100 µM (inactive)
GI50 [7]: > 100 µM (inactive)
GI50 [8]: > 100 µM (inactive)
GI50 [9]: > 100 µM (inactive)
GI50 [10]: > 100 µM (inactive)
GI50 [11]: > 100 µM (inactive)
GI50 [12]: > 100 µM (inactive)
GI50 [13]: > 100 µM (inactive)
GI50 [14]: > 100 µM (inactive)
GI50 [15]: > 100 µM (inactive)
GI50 [16]: > 100 µM (inactive)
GI50 [17]: > 100 µM (inactive)
GI50 [18]: > 100 µM (inactive)
GI50 [19]: > 100 µM (inactive)
GI50 [20]: > 100 µM (inactive)

Cc1n(-c2ccccc2)c2c([n+]1Cc1ccc([N+](=O)[O-])cc1)C(=O)c1ccccc1C2=O
GI50 [1]: 13.1 µM (inactive)
GI50 [2]: 7.66 µM (inactive)
GI50 [3]: 5.45 µM (inactive)
GI50 [4]: 1.85 µM (inactive)
GI50 [5]: 1.72 µM (inactive)
GI50 [6]: 0.409 µM (active)
GI50 [7]: 2.29 µM (inactive)
GI50 [8]: 1.42 µM (inactive)
GI50 [9]: 1.16 µM (inactive)
GI50 [10]: 2.25 µM (inactive)
GI50 [11]: 3.69 µM (inactive)
GI50 [12]: 1.9 µM (inactive)
GI50 [13]: 1.64 µM (inactive)
GI50 [14]: 1.75 µM (inactive)
GI50 [15]: 0.182 µM (active)
GI50 [16]: 1.85 µM (inactive)
GI50 [17]: 6.5 µM (inactive)
GI50 [18]: 1.59 µM (inactive)
GI50 [19]: 2.49 µM (inactive)
GI50 [20]: 4.31 µM (inactive)
